± gives the expanded uncertainty stated by the source.
Assays:
[1] = excess molar enthalpy (molar enthalpy of mixing); xn = mol fraction of the nth substance listed; details: 298.15 K, 101.33 kPa, Liquid, Flow calorimetry
[2] = 298.15 K; 101.33 kPa; Liquid; Vibrating tube method

C1CCOC1 [tetrahydrofuran] + C1CCCCC1
[1]
Details	excess molar enthalpy [kcal/mol]
x1 = 0.05	0.0385 ± 0.000574
x1 = 0.1	0.0709 ± 0.000813
x1 = 0.15	0.0988 ± 0.00103
x1 = 0.2001	0.121 ± 0.0012
x1 = 0.2499	0.1399 ± 0.00136
x1 = 0.2997	0.1529 ± 0.00148
x1 = 0.35	0.1636 ± 0.00155
x1 = 0.4003	0.1707 ± 0.00163
x1 = 0.4504	0.174 ± 0.00165
x1 = 0.4999	0.1745 ± 0.00165
x1 = 0.5498	0.1722 ± 0.00163
x1 = 0.6	0.1663 ± 0.00158
x1 = 0.65	0.1569 ± 0.00151
x1 = 0.7003	0.1444 ± 0.00141
x1 = 0.7498	0.1264 ± 0.00124
x1 = 0.8	0.108 ± 0.0011
x1 = 0.8505	0.0858 ± 0.000908
x1 = 0.9003	0.0599 ± 0.000717
x1 = 0.95	0.0309 ± 0.000526

C1CCOC1 [tetrahydrofuran] + CCCCCCCCCC
[1]
Details	excess molar enthalpy [kcal/mol]
x1 = 0.05	0.0371 ± 0.000598
x1 = 0.0999	0.0724 ± 0.000837
x1 = 0.15	0.104 ± 0.00108
x1 = 0.2	0.1308 ± 0.00129
x1 = 0.2503	0.1543 ± 0.00151
x1 = 0.3	0.1748 ± 0.00167
x1 = 0.3498	0.1922 ± 0.00182
x1 = 0.4002	0.2066 ± 0.00194
x1 = 0.4509	0.2141 ± 0.00198
x1 = 0.4999	0.2201 ± 0.00206
x1 = 0.5499	0.2222 ± 0.00206
x1 = 0.6002	0.2203 ± 0.00206
x1 = 0.6501	0.2133 ± 0.00198
x1 = 0.7003	0.2016 ± 0.00189
x1 = 0.7502	0.185 ± 0.00174
x1 = 0.8003	0.1621 ± 0.00158
x1 = 0.8502	0.134 ± 0.00134
x1 = 0.9011	0.098 ± 0.00108
x1 = 0.95	0.0545 ± 0.000765

C1CCOC1 [tetrahydrofuran] + CCCCCC
[1]
Details	excess molar enthalpy [kcal/mol]
x1 = 0.05	0.0362 ± 0.000574
x1 = 0.1	0.0678 ± 0.000789
x1 = 0.1499	0.0942 ± 0.001
x1 = 0.2001	0.118 ± 0.0012
x1 = 0.25	0.1371 ± 0.00134
x1 = 0.2998	0.1538 ± 0.00148
x1 = 0.3503	0.1645 ± 0.00158
x1 = 0.4003	0.1733 ± 0.00165
x1 = 0.4504	0.1788 ± 0.0017
x1 = 0.5005	0.1794 ± 0.0017
x1 = 0.5508	0.1793 ± 0.0017
x1 = 0.6003	0.1743 ± 0.00165
x1 = 0.6503	0.1663 ± 0.00158
x1 = 0.7002	0.1544 ± 0.00148
x1 = 0.75	0.1389 ± 0.00136
x1 = 0.8015	0.119 ± 0.0012
x1 = 0.8501	0.0947 ± 0.001
x1 = 0.8998	0.0693 ± 0.000813
x1 = 0.9499	0.0365 ± 0.000574

CCCCCCCCCC [decane]
Details	mass density [kg/m3]
[2]	726.37 ± 0.41

CCCCCC [hexane]
Details	mass density [kg/m3]
[2]	655.42 ± 0.4

C1CCOC1 [tetrahydrofuran]
Details	mass density [kg/m3]
[2]	882.09 ± 0.46

C1CCCCC1 [cyclohexane]
Details	mass density [kg/m3]
[2]	773.92 ± 0.42

— the NIST ThermoML archive (doi:10.1021/je020159m)
